Assays:
[1] = 298.15 K; 101.33 kPa; Liquid
[2] = xn = mol fraction of the nth substance listed; settings: 298.15 K, 101.33 kPa, Liquid
[3] = excess molar enthalpy (molar enthalpy of mixing); xn = mol fraction of the nth substance listed; settings: 298.15 K, 101.33 kPa, Liquid

COC(F)(F)C(F)(F)C(F)(F)C(F)(F)F [1-methoxy-nonafluorobutane]
Settings	mass density [kg/m3]
[1]	1516.5

COC(F)(F)C(F)(F)C(F)(F)C(F)(F)F [1-methoxy-nonafluorobutane] + CCCCOCCO
Settings	excess molar enthalpy, [3] [kcal/mol]	mass density, [2] [kg/m3]
x1 = 0.02507	–	915.04
x1 = 0.05001	0.04	–
x1 = 0.05002	–	932.88
x1 = 0.1	0.0726	–
x1 = 0.1001	–	969.14
x1 = 0.1499	–	1004.19
x1 = 0.1998	–	1038.73
x1 = 0.2	0.122	–
x1 = 0.2497	–	1072.68
x1 = 0.2995	–	1105.83
x1 = 0.3	0.157	–
x1 = 0.3499	–	1138.71
x1 = 0.4001	0.18	–
x1 = 0.41	–	1176.96
x1 = 0.4499	–	1201.93
x1 = 0.5001	0.195	–
x1 = 0.5155	–	1242.24
x1 = 0.5499	–	1262.86
x1 = 0.5501	0.2	–
x1 = 0.5999	–	1292.53
x1 = 0.6001	0.202	–
x1 = 0.65	–	1321.64
x1 = 0.6501	0.203	–
x1 = 0.6999	–	1350.17
x1 = 0.7	0.2	–
x1 = 0.7499	–	1378.23
x1 = 0.75	0.194	–
x1 = 0.8	0.184	1405.94
x1 = 0.85	0.168	–
x1 = 0.8502	–	1433.58
x1 = 0.9	0.142	–
x1 = 0.9002	–	1461.09
x1 = 0.95	0.1	1488.03
x1 = 0.9749	–	1501.9
x1 = 0.975	0.0629	–
x1 = 1	–	1516.5

COC(F)(F)C(F)(F)C(F)(F)C(F)(F)F [1-methoxy-nonafluorobutane] + CCOCCO
Settings	excess molar enthalpy [kcal/mol]	mass density [kg/m3]
[2], x1 = 0.00503	–	929.7
[2], x1 = 0.01079	–	934.97
[2], x1 = 0.02102	–	944.32
[2], x1 = 0.02987	–	952.74
[2], x1 = 0.04002	–	961.9
[2], x1 = 0.04998	–	970.86
[2], x1 = 0.05985	–	979.66
[2], x1 = 0.07003	–	988.6
[2], x1 = 0.07976	–	997.21
[2], x1 = 0.09179	–	1007.4
[2], x1 = 0.09978	–	1014.34
[2], x1 = 0.1998	–	1094.44
[2], x1 = 0.2999	–	1166.16
[2], x1 = 0.3998	–	1230.34
[2], x1 = 0.4998	–	1288.32
[2], x1 = 0.5999	–	1340.92
[2], x1 = 0.6998	–	1389.17
[2], x1 = 0.7996	–	1433.24
[2], x1 = 0.9003	–	1475.39
[2], x1 = 0.9098	–	1479.22
[2], x1 = 0.9198	–	1482.97
[2], x1 = 0.9304	–	1487.24
[2], x1 = 0.9399	–	1491.41
[2], x1 = 0.9502	–	1495.54
[2], x1 = 0.9587	–	1499
[2], x1 = 0.969	–	1503.23
[2], x1 = 0.9802	–	1507.87
[2], x1 = 0.9901	–	1512.09
[2], x1 = 0.9949	–	1514.04
[2], x1 = 1	–	1516.5
[3], x1 = 0.05001	0.0376	–
[3], x1 = 0.1	0.0615	–
[3], x1 = 0.2	0.0937	–
[3], x1 = 0.3	0.117	–
[3], x1 = 0.4001	0.135	–
[3], x1 = 0.5001	0.149	–
[3], x1 = 0.5501	0.153	–
[3], x1 = 0.6001	0.158	–
[3], x1 = 0.6501	0.159	–
[3], x1 = 0.7	0.159	–
[3], x1 = 0.75	0.157	–
[3], x1 = 0.8	0.151	–
[3], x1 = 0.85	0.141	–
[3], x1 = 0.9	0.121	–
[3], x1 = 0.95	0.0866	–
[3], x1 = 0.9507	0.0867	–
[3], x1 = 0.975	0.056	–

COC(F)(F)C(F)(F)C(F)(F)C(F)(F)F [1-methoxy-nonafluorobutane] + COCCO
Settings	excess molar enthalpy, [3] [kcal/mol]	mass density, [2] [kg/m3]
x1 = 0.00553	–	965.99
x1 = 0.01007	–	970.85
x1 = 0.02663	–	988.18
x1 = 0.02992	–	991.62
x1 = 0.03967	–	1001.54
x1 = 0.04976	–	1011.78
x1 = 0.05	0.0487	–
x1 = 0.05995	–	1021.9
x1 = 0.06979	–	1031.53
x1 = 0.07991	–	1041.28
x1 = 0.08992	–	1050.63
x1 = 0.09992	–	1059.88
x1 = 0.1	0.0727	–
x1 = 0.1999	–	1144.03
x1 = 0.2	0.1	–
x1 = 0.2999	–	1215.05
x1 = 0.3	0.119	–
x1 = 0.4	–	1275.68
x1 = 0.4001	0.133	–
x1 = 0.5	0.144	–
x1 = 0.5001	–	1328.23
x1 = 0.5501	0.149	–
x1 = 0.5997	–	1373.83
x1 = 0.6001	0.154	–
x1 = 0.6501	0.153	–
x1 = 0.7001	0.153	1414.55
x1 = 0.75	0.151	–
x1 = 0.8001	0.146	–
x1 = 0.8005	–	1451
x1 = 0.85	0.137	–
x1 = 0.8997	–	1483.83
x1 = 0.9	0.121	–
x1 = 0.9106	–	1487.37
x1 = 0.9204	–	1490.55
x1 = 0.9304	–	1493.65
x1 = 0.9403	–	1496.79
x1 = 0.95	0.0872	–
x1 = 0.9508	–	1500.13
x1 = 0.9604	–	1503.16
x1 = 0.971	–	1506.5
x1 = 0.975	0.0582	–
x1 = 0.98	–	1509.57
x1 = 0.99	–	1512.86
x1 = 0.9948	–	1514.59
x1 = 1	–	1516.5

COC(F)(F)C(F)(F)C(F)(F)C(F)(F)F [1-methoxy-nonafluorobutane] + COCCOCCO
Settings	mass density [kg/m3]
[2], x1 = 1	1516.5

COC(F)(F)C(F)(F)C(F)(F)C(F)(F)F [1-methoxy-nonafluorobutane] + COCCOCCOC
Settings	excess molar enthalpy [kcal/mol]	mass density [kg/m3]
[2], x1 = 0.02464	–	954.08
[2], x1 = 0.0497	–	969.75
[2], x1 = 0.1001	–	1001.04
[2], x1 = 0.1498	–	1031.72
[2], x1 = 0.1998	–	1062.36
[2], x1 = 0.2496	–	1092.61
[2], x1 = 0.2994	–	1122.54
[2], x1 = 0.3493	–	1152.22
[2], x1 = 0.3998	–	1181.93
[2], x1 = 0.4496	–	1210.92
[2], x1 = 0.4998	–	1239.78
[2], x1 = 0.5495	–	1268.27
[2], x1 = 0.5999	–	1296.83
[2], x1 = 0.6499	–	1324.79
[2], x1 = 0.6993	–	1352.36
[2], x1 = 0.7495	–	1380.12
[2], x1 = 0.7996	–	1407.65
[2], x1 = 0.8498	–	1435.09
[2], x1 = 0.8997	–	1462.11
[2], x1 = 0.9498	–	1489.22
[2], x1 = 0.9749	–	1502.87
[2], x1 = 1	–	1516.5
[3], x1 = 0.05001	0.0399	–
[3], x1 = 0.1	0.066	–
[3], x1 = 0.15	0.081	–
[3], x1 = 0.2	0.0883	–
[3], x1 = 0.25	0.0919	–
[3], x1 = 0.3	0.0915	–
[3], x1 = 0.35	0.0883	–
[3], x1 = 0.4001	0.0839	–
[3], x1 = 0.5001	0.0705	–
[3], x1 = 0.6001	0.0546	–
[3], x1 = 0.7	0.038	–
[3], x1 = 0.8	0.022	–
[3], x1 = 0.9	0.00844	–
[3], x1 = 0.95	0.00265	–

COCCOCCOC [2,5,8-trioxanonane]
Settings	mass density [kg/m3]
[1]	938.62

COCCOCCOC [2,5,8-trioxanonane] + COC(F)(F)C(F)(F)C(F)(F)C(F)(F)F
Settings	mass density [kg/m3]
[2], x2 = 0	938.62

COCCOCCO [2-(2-methoxyethoxy)ethanol]
Settings	mass density [kg/m3]
[1]	1015.6

COCCOCCO [2-(2-methoxyethoxy)ethanol] + COC(F)(F)C(F)(F)C(F)(F)C(F)(F)F
Settings	excess molar enthalpy, [3] [kcal/mol]	mass density, [2] [kg/m3]
x2 = 0	–	1015.6
x2 = 0.02479	–	1031.94
x2 = 0.04975	–	1048.37
x2 = 0.05006	0.0519	–
x2 = 0.09963	–	1080.8
x2 = 0.1001	0.0713	–
x2 = 0.1498	–	1112.38
x2 = 0.1999	–	1142.86
x2 = 0.2002	0.0873	–
x2 = 0.2495	–	1172.17
x2 = 0.2996	–	1200.75
x2 = 0.3003	0.0967	–
x2 = 0.3996	–	1254.72
x2 = 0.4003	0.102	–
x2 = 0.4503	0.103	–
x2 = 0.4994	–	1304.76
x2 = 0.5003	0.103	–
x2 = 0.5503	0.103	–
x2 = 0.5984	–	1351.61
x2 = 0.6003	0.103	–
x2 = 0.6503	0.102	–
x2 = 0.699	–	1396.09
x2 = 0.7003	0.101	–
x2 = 0.7499	–	1417.68
x2 = 0.7998	–	1438.09
x2 = 0.8002	0.0953	–
x2 = 0.85	–	1458.09
x2 = 0.8999	–	1477.55
x2 = 0.9001	0.0773	–
x2 = 0.9501	0.055	1496.84
x2 = 0.9749	–	1506.46

CCCCOCCO [2-butoxyethan-1-ol]
Settings	mass density [kg/m3]
[1]	896.25

CCCCOCCO [2-butoxyethan-1-ol] + COC(F)(F)C(F)(F)C(F)(F)C(F)(F)F
Settings	mass density [kg/m3]
[2], x2 = 0	896.25

CCOCCO [2-ethoxyethan-1-ol]
Settings	mass density [kg/m3]
[1]	924.92

CCOCCO [2-ethoxyethan-1-ol] + COC(F)(F)C(F)(F)C(F)(F)C(F)(F)F
Settings	mass density [kg/m3]
[2], x2 = 0	924.92

COCCO [2-methoxyethan-1-ol]
Settings	mass density [kg/m3]
[1]	960.01

COCCO [2-methoxyethan-1-ol] + COC(F)(F)C(F)(F)C(F)(F)C(F)(F)F
Settings	mass density [kg/m3]
[2], x2 = 0	960.01
